According to US20210309666A1, “SMALL MOLECULE MDM2 PROTEIN DEGRADERS” (THE REGENTS OF THE UNIVERSITY OF MICHIGAN, priority 2018, published 2021):

System: RS4;11 cells
Assay: Cell growth inhibition, 4-day proliferation assay (WST-8)
Assay type: cell-based
Conditions: Homo sapiens, 96 h; RS4;11 cells, 4 days, WST-8; read-out: RS4; 11 Cells IC50
Procedure: The effect of representative Compounds of the Disclosure on cell viability was determined in a 4-day proliferation assay. Cells were maintained in the appropriate culture medium with 10% FBS at 37° C. and an atmosphere of 5% CO2. Also, the effect of a MDM2 inhibitor (Cpd. A; see Compound Example No. 22 of U.S. Pat. No. 8,629,141) and a known MDM2 degrader (Cpd. D, see Cpd. No. 175 of WO 2017/0176957) on cell viability in various cell lines is also included in Table 5. Cpd. […] A and D. The structure of Cpd. A is:
Cells were seeded in 96-well flat bottom (Corning COSTAR, Corning, N.Y., cat #3595) at a density of 2,000-3,000 cells/well in 100 μL of culture medium. Compounds were serially diluted in the appropriate medium, and 100 μL of the diluted compounds were added to the appropriate wells of the cell plate. After the addition of compounds, the cells were incubated at 37° C. in an atmosphere of 5% CO2 for 4 days. Cell viability was determined using the WST (2-(2-methoxy-4-nitrophenyl)-3-(4-nitrophenyl)-5-(2,4-disulfophenyl)-2H-tetrazolium, monosodium salt) Cell Counting-8 Kit (Dojindo Molecular Technologies, Inc., Rockville, Md.) according to the manufacturers' instructions.
WST-8 reagent was added to each well at a final concentration of 10% (v/v), and then the plates were incubated at 37° C. for 1-2 hours for color development. The absorbance was measured at 450 nm using a SPECTRAmax PLUS plate reader (Molecular Devices, Sunnyvale, Calif.). The readings were normalized to the DMSO-treated cells and the half maximal inhibitory concentration (IC50) was calculated by nonlinear regression (four parameters sigmoid fitted with variable slope, least squares fit, and no constraint) analysis using the GraphPad Prism 5 software (GraphPad Software, La Jolla, Calif.).

Row | SMILES | IC50 [nM]
1 | CCN1[C@@H](C(=O)N2CCC(C(=O)N3CCC(C#Cc4cccc5c4CN(C4CCC(=O)NC4=O)C5=O)CC3)CC2)[C@H](c2cccc(Cl)c2F)[C@]2(C(=O)Nc3cc(Cl)ccc32)C12CCCCC2 (stereo partly drawn) [Cpd. No. 22, 3-(4-((1-(1-((3′R,4′S,5′R)-6″-chloro-4′-(3-chloro-2-fluorophenyl)-1′-ethyl-2″-oxodispiro[cyclohexane-1,2′-pyrrolidine-3′,3″-indoline]-5′-carbonyl)piperidine-4-carbonyl)piperidin-4-yl)ethynyl)-1-oxoisoindolin-2-yl)piperidine-2,6-dione] | > 100
2 | CCN1[C@@H](C(=O)Nc2ccc(C(=O)N3CCC(C#Cc4cccc5c4CN(C4CCC(=O)NC4=O)C5=O)CC3)cc2)[C@H](c2cccc(Cl)c2F)[C@]2(C(=O)Nc3cc(Cl)ccc32)C12CCCCC2 (stereo partly drawn) [Cpd. No. 24, (3′R,4′S,5′R)-6″-chloro-4′-(3-chloro-2-fluorophenyl)-N-(4-(4-((2-(2,6-dioxopiperidin-3-yl)-1-oxoisoindolin-4-yl)ethynyl)piperidine-1-carbonyl)phenyl)-1′-ethyl-2″-oxodispiro[cyclohexane-1,2′-pyrrolidine-3′,3″-indoline]-5′-carboxamide] | 6.6
3 | CC1(C#Cc2cccc3c2CN(C2CCC(=O)NC2=O)C3=O)CCN(C(=O)C23CCC(NC(=O)[C@@H]4NC5(CCCCC5)[C@@]5(C(=O)Nc6cc(Cl)ccc65)[C@H]4c4cccc(Cl)c4F)(CC2)CC3)CC1 (stereo partly drawn) [Cpd. No. 31, (3′R,4′S,5′R)-6″-chloro-4′-(3-chloro-2-fluorophenyl)-N-(4-(4-((2-(2,6-dioxopiperidin-3-yl)-1-oxoisoindolin-4-yl)ethynyl)-4-methylpiperidine-1-carbonyl)bicyclo[2.2.2]octan-1-yl)-2″-oxodispiro[cyclohexane-1,2′-pyrrolidine-3′,3″-indoline]-5′-carboxamide] | 2.9
4 | O=C1CCC(N2Cc3c(C#CC4CN(C(=O)C56CCC(NC(=O)[C@@H]7NC8(CCCCC8)[C@@]8(C(=O)Nc9cc(Cl)ccc98)[C@H]7c7cccc(Cl)c7F)(CC5)CC6)C4)cccc3C2=O)C(=O)N1 (stereo partly drawn) [Cpd. No. 33, (3′R,4′S,5′R)-6″-chloro-4′-(3-chloro-2-fluorophenyl)-N-(4-(3-((2-(2,6-dioxopiperidin-3-yl)-1-oxoisoindolin-4-yl)ethynyl)azetidine-1-carbonyl)bicyclo[2.2.2]octan-1-yl)-2″-oxodispiro [cyclohexane-1,2′-pyrrolidine-3′,3″-indoline]-5′-carboxamide] | 1.2
5 | CC(C)[C@@H](CS(=O)(=O)C(C)C)N1C(=O)[C@@](C)(CC(=O)NCCCC#Cc2cccc3c2CN(C2CCC(=O)NC2=O)C3=O)C[C@H](c2cccc(Cl)c2)[C@H]1c1ccc(Cl)cc1 (stereo partly drawn) [Cpd. No. 37, 2-((3R,5R,6S)-5-(3-chlorophenyl)-6-(4-chlorophenyl)-1-((S)-1-(isopropylsulfonyl)-3-methylbutan-2-yl)-3-methyl-2-oxopiperidin-3-yl)-N-(5-(2-(2,6-dioxopiperidin-3-yl)-1-oxoisoindolin-4-yl)pent-4-yn-1-yl)acetamide] | > 100
6 | CC(C)(C)C[C@@H]1N[C@@H](C(=O)NC23CCC(C(=O)N4CCC(C#Cc5cccc6c5CN(C5CCC(=O)NC5=O)C6=O)CC4)(CC2)CC3)[C@H](c2cccc(Cl)c2F)[C@@]1(C#N)c1ccc(Cl)cc1F (some centres unmarked) [Cpd. No. 38] | 56

Continued, values first:

Row | IC50 [nM] | SMILES
7 | > 100 | O=C1CCC(N2Cc3c(C#CC4CCN(C(=O)C5CCN(C(=O)[C@@H]6NC7(CCCCC7)[C@@]7(C(=O)Nc8cc(Cl)ccc87)[C@H]6c6cccc(Cl)c6F)CC5)CC4)cccc3C2=O)C(=O)N1 (stereo partly drawn) [Cpd. No. 23, 3-(4-((1-(1-((3′R,4′S,5′R)-6″-chloro-4′-(3-chloro-2-fluorophenyl)-2″-oxodispiro[cyclohexane-1,2′-pyrrolidine-3′,3″-indoline]-5′-carbonyl)piperidine-4-carbonyl)piperidin-4-yl)ethynyl)-1-oxoisoindolin-2-yl)piperidine-2,6-dione]
8 | > 100 | O=C1CCC(N2Cc3c(C#CCCCNC(=O)[C@H]4CC[C@H](NC(=O)[C@@H]5NC6(CCCCC6)[C@@]6(C(=O)Nc7cc(Cl)ccc76)[C@H]5c5ccccc5F)CC4)cccc3C2=O)C(=O)N1 (stereo partly drawn) [Cpd. No. 25, (3′R,4′S,5′R)-6″-chloro-N-(4-((5-(2-(2,6-dioxopiperidin-3-yl)-1-oxoisoindolin-4-yl)pent-4-yn-1-yl)carbamoyl)cyclohexyl)-4′-(2-fluorophenyl)-2″-oxodispiro[cyclohexane-1,2′-pyrrolidine-3′,3″-indoline]-5′-carboxamide]
9 | 0.7 | O=C1CCC(N2Cc3c(C#CCCCNC(=O)[C@H]4CC[C@H](NC(=O)[C@@H]5NC6(CCCCC6)[C@@]6(C(=O)Nc7cc(Cl)ccc76)[C@H]5c5cccc(Cl)c5)CC4)cccc3C2=O)C(=O)N1 (stereo partly drawn) [Cpd. No. 26, (3′R,4′R,5′R)-6″-chloro-4′-(3-chlorophenyl)-N-((1r,4R)-4-((5-(2-(2,6-dioxopiperidin-3-yl)-1-oxoisoindolin-4-yl)pent-4-yn-1-yl)carbamoyl)cyclohexyl)-2″-oxodispiro[cyclohexane-1,2′-pyrrolidine-3′,3″-indoline]-5′-carboxamide]
10 | > 100 | O=C1CCC(N2Cc3c(C#CCCCNC(=O)[C@H]4CC[C@H](NC(=O)[C@@H]5NC6(CCCCC6)[C@@]6(C(=O)Nc7cc(Cl)ccc76)[C@H]5c5ccccc5)CC4)cccc3C2=O)C(=O)N1 (stereo partly drawn) [Cpd. No. 27, (3′R,4′R,5′R)-6″-chloro-N-((1r,4R)-4-((5-(2-(2,6-dioxopiperidin-3-yl)-1-oxoisoindolin-4-yl)pent-4-yn-1-yl)carbamoyl)cyclohexyl)-2″-oxo-4′-phenyldispiro[cyclohexane-1,2′-pyrrolidine-3′,3″-indoline]-5′-carboxamide]
11 | > 100 | COc1cc(C(=O)N2CCC(C#Cc3cccc4c3CN(C3CCC(=O)NC3=O)C4=O)CC2)ccc1NC(=O)[C@@H]1NC2(CCCCC2)[C@@]2(C(=O)Nc3cc(Cl)ccc32)[C@H]1c1cccc(Cl)c1F (stereo partly drawn) [Cpd. No. 28, (3′R,4′S,5′R)-6″-chloro-4′-(3-chloro-2-fluorophenyl)-N-(4-(4-((2-(2,6-dioxopiperidin-3-yl)-1-oxoisoindolin-4-yl)ethynyl)piperidine-1-carbonyl)-2-methoxyphenyl)-2″-oxodispiro[cyclohexane-1,2′-pyrrolidine-3′,3″-indoline]-5′-carboxamide]
12 | > 100 | O=C1CCC(N2Cc3c(C#CC4CCN(C(=O)CC5CCN(C(=O)[C@@H]6NC7(CCCCC7)[C@@]7(C(=O)Nc8cc(Cl)ccc87)[C@H]6c6cccc(Cl)c6F)CC5)CC4)cccc3C2=O)C(=O)N1 (stereo partly drawn) [Cpd. No. 29, 3-(4-((1-(2-(1-((3′R,4′S,5′R)-6″-chloro-4′-(3-chloro-2-fluorophenyl)-2″-oxodispiro[cyclohexane-1,2′-pyrrolidine-3′,3″-indoline]-5′-carbonyl)piperidin-4-yl)acetyl)piperidin-4-yl)ethynyl)-1-oxoisoindolin-2-yl)piperidine-2,6-dione]
13 | 1.2 | CC1(C#Cc2cccc3c2CN(C2CCC(=O)NC2=O)C3=O)CCN(C(=O)[C@H]2CC[C@H](NC(=O)[C@@H]3NC4(CCCCC4)[C@@]4(C(=O)Nc5cc(Cl)ccc54)[C@H]3c3cccc(Cl)c3F)CC2)CC1 (stereo partly drawn) [Cpd. No. 30, (3′R,4′S,5′R)-6″-chloro-4′-(3-chloro-2-fluorophenyl)-N-(4-(4-((2-(2,6-dioxopiperidin-3-yl)-1-oxoisoindolin-4-yl)ethynyl)-4-methylpiperidine-1-carbonyl)cyclohexyl)-2″-oxodispiro[cyclohexane-1,2′-pyrrolidine-3′,3″-indoline]-5′-carboxamide]
14 | 1.3 | O=C1CCC(N2Cc3c(C#CC4CN(C(=O)[C@H]5CC[C@H](NC(=O)[C@@H]6NC7(CCCCC7)[C@@]7(C(=O)Nc8cc(Cl)ccc87)[C@H]6c6cccc(Cl)c6F)CC5)C4)cccc3C2=O)C(=O)N1 (stereo partly drawn) [Cpd. No. 32, (3′R,4′S,5′R)-6″-chloro-4′-(3-chloro-2-fluorophenyl)-N-(4-(3-((2-(2,6-dioxopiperidin-3-yl)-1-oxoisoindolin-4-yl)ethynyl)azetidine-1-carbonyl)cyclohexyl)-2″-oxodispiro[cyclohexane-1,2′-pyrrolidine-3′,3″-indoline]-5′-carboxamide]
